Laboratory results taken from US20230159597A1 (priority 2020, published 2023).

Tested on: wild-type EBOV Mayinga

Row | Compound | relative potency | IC50 times higher than both TAT-EBO-PEG4-Chol and TAT-EBO-dPEG4-Chol
1 | CC[C@H](C)[C@H](NC(=O)CNC(=O)[C@H](CO)NC(=O)CNC(=O)[C@H](CCCNC(=N)N)NC(=O)[C@H](CCCNC(=N)N)NC(=O)[C@H](CCCNC(=N)N)NC(=O)[C@H](CCC(N)=O)NC(=O)[C@H](CCCNC(=N)N)NC(=O)[C@H](CCCNC(=N)N)NC(=O)[C@H](CCCCN)NC(=O)[C@H](CCCCN)NC(=O)[C@H](CCCNC(=N)N)NC(=O)CNC(=O)[C@H](Cc1ccc(O)cc1)NC(C)=O)C(=O)N[C@@H](C)C(=O)N[C@@H](C)C(=O)N[C@H](C(=O)N[C@@H](CC(C)C)C(=O)N1CCC[C@H]1C(=O)N[C@@H](Cc1c[nH]cn1)C(=O)N[C@@H](CC(=O)O)C(=O)N[C@@H](Cc1c[nH]c2ccccc12)C(=O)N[C@H](C(=O)N[C@@H](CCCCN)C(=O)N[C@@H](CC(N)=O)C(=O)N[C@H](C(=O)N[C@H](C(=O)N[C@@H](CC(=O)O)C(=O)N[C@@H](CCCCN)C(=O)N[C@H](C(=O)N[C@@H](CC(=O)O)C(=O)N[C@@H](CCC(N)=O)C(=O)N[C@H](C(=O)N[C@H](C(=O)N[C@@H](Cc1c[nH]cn1)C(=O)N[C@@H](CC(=O)O)C(=O)N[C@@H](Cc1ccccc1)C(=O)N[C@H](C(=O)N[C@@H](CC(=O)O)C(=O)N[C@@H](CCCCN)C(=O)NCC(=O)N[C@@H](CO)C(=O)NCC(=O)N[C@@H](CO)C(=O)NCC(=O)N[C@@H](CSCC(=O)O[C@H]1CC[C@@]2(C)C(=CC[C@H]3[C@@H]4CC[C@H]([C@H](C)CCCC(C)C)[C@@]4(C)CC[C@@H]32)C1)C(N)=O)C(C)C)[C@@H](C)CC)[C@@H](C)CC)[C@@H](C)CC)[C@@H](C)O)[C@@H](C)CC)[C@@H](C)O)[C@@H](C)CC [TAT-EBO-IAAILP-Chol] | the most potent peptide we designed so far | –
2 | CC[C@H](C)[C@H](NC(=O)CNC(=O)[C@H](CO)NC(=O)CNC(=O)[C@H](CCCNC(=N)N)NC(=O)[C@H](CCCNC(=N)N)NC(=O)[C@H](CCCNC(=N)N)NC(=O)[C@H](CCC(N)=O)NC(=O)[C@H](CCCNC(=N)N)NC(=O)[C@H](CCCNC(=N)N)NC(=O)[C@H](CCCCN)NC(=O)[C@H](CCCCN)NC(=O)[C@H](CCCNC(=N)N)NC(=O)CNC(=O)[C@H](Cc1ccc(O)cc1)NC(C)=O)C(=O)N[C@@H](C)C(=O)N[C@@H](C)C(=O)N[C@H](C(=O)N[C@@H](CC(C)C)C(=O)N1CCC[C@H]1C(=O)N[C@@H](Cc1c[nH]cn1)C(=O)N[C@@H](CC(=O)O)C(=O)N[C@@H](Cc1c[nH]c2ccccc12)C(=O)N[C@H](C(=O)N[C@@H](CCCCN)C(=O)N[C@@H](CC(N)=O)C(=O)N[C@H](C(=O)N[C@H](C(=O)N[C@@H](CC(=O)O)C(=O)N[C@@H](CCCCN)C(=O)N[C@H](C(=O)N[C@@H](CC(=O)O)C(=O)N[C@@H](CCC(N)=O)C(=O)N[C@H](C(=O)N[C@H](C(=O)N[C@@H](Cc1c[nH]cn1)C(=O)N[C@@H](CC(=O)O)C(=O)N[C@@H](Cc1ccccc1)C(=O)N[C@H](C(=O)N[C@@H](CC(=O)O)C(=O)N[C@@H](CCCCN)C(=O)NCC(=O)N[C@@H](CO)C(=O)NCC(=O)N[C@@H](CO)C(=O)NCC(=O)N[C@@H](CSCC(=O)NCCOCCOCCOCCOCCC(=O)O[C@H]1CC[C@@]2(C)C(=CC[C@H]3[C@@H]4CC[C@H]([C@H](C)CCCC(C)C)[C@@]4(C)CC[C@@H]32)C1)C(N)=O)C(C)C)[C@@H](C)CC)[C@@H](C)CC)[C@@H](C)CC)[C@@H](C)O)[C@@H](C)CC)[C@@H](C)O)[C@@H](C)CC [TAT-EBO-IAAILP-PEG4-Chol] | – | around 10 times
